1 compound from ChEMBL document CHEMBL6120940, “Discovery of N-Aryl-N'-[4-(aryloxy)cyclohexyl]squaramide-Based Inhibitors of LXR/SREBP-1c Signaling Pathway Ameliorating Steatotic Liver Disease: Navigating the Role of SIRT6 Activation” (J Med Chem, 2024) can be followed below.

Calls of active or inactive are those of the source. The calls are words filed in the database; no cut-off is given here. Some results are limits rather than exact numbers.

The nature of data set [1]: Stability in mouse plasma measured after 120 mins by LC-MS/MS analysis. The data set is classed as ADME, cell-free. The following applies: read-out: Stability.
The target of data set [2] is CYP3A4 (Homo sapiens, UniProt P08684). As to the kind of experiment: Inhibition of CYP3A4 in human liver microsomes at 10 uM using midazolam as substrate preincubated for 5 mins followed by NADPH generating system addition and measured after 15 mins relative to control. It is filed as ADME, Microsome. The following applies: probe midazolam, time 20 min.
CYP3A4, sequence (P08684 whole entry): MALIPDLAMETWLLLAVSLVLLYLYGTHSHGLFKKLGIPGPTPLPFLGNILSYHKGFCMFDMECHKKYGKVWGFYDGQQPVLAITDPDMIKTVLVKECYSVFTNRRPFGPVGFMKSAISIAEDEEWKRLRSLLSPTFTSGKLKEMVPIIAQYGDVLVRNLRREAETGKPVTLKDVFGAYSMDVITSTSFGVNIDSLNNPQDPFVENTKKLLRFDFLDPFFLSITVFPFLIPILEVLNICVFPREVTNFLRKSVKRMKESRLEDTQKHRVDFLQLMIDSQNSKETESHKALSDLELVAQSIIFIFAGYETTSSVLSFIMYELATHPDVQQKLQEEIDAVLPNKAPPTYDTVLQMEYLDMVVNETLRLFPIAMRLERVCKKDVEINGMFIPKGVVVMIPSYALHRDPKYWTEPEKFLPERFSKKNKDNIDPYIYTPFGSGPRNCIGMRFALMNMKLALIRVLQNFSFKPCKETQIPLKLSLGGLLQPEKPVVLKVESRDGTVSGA
Data set [3] in a line: MRT infinity in 16 hrs fasted ICR mouse at 2 mg/kg, iv measured upto 8 hrs by LC-MS/MS analysis. The following applies: in vivo. The data set is classed as ADME, organism-based.
Data set [4] can be described thus: Clearance in 16 hrs fasted ICR mouse at 2 mg/kg, iv measured upto 8 hrs by LC-MS/MS analysis. It is filed as ADME, organism-based. Particulars: in vivo.
Data set [5] relates to HepG2. As to the kind of experiment: Downregulation of SREBP-1c expression level in human HepG2 cells at 5 to 10 uM pretreated with compound for 30 mins followed by GW3965 addition and measured after 12 hrs by RT-qPCR analysis. It is filed as functional, cell-based. Particulars: dose 5-10 µM, time 12.5 hrs.
In data set [6] the target is T1, Sterol regulatory element-binding protein 1 (Homo sapiens) (UniProt P36956).
T1 sequence (whole entry): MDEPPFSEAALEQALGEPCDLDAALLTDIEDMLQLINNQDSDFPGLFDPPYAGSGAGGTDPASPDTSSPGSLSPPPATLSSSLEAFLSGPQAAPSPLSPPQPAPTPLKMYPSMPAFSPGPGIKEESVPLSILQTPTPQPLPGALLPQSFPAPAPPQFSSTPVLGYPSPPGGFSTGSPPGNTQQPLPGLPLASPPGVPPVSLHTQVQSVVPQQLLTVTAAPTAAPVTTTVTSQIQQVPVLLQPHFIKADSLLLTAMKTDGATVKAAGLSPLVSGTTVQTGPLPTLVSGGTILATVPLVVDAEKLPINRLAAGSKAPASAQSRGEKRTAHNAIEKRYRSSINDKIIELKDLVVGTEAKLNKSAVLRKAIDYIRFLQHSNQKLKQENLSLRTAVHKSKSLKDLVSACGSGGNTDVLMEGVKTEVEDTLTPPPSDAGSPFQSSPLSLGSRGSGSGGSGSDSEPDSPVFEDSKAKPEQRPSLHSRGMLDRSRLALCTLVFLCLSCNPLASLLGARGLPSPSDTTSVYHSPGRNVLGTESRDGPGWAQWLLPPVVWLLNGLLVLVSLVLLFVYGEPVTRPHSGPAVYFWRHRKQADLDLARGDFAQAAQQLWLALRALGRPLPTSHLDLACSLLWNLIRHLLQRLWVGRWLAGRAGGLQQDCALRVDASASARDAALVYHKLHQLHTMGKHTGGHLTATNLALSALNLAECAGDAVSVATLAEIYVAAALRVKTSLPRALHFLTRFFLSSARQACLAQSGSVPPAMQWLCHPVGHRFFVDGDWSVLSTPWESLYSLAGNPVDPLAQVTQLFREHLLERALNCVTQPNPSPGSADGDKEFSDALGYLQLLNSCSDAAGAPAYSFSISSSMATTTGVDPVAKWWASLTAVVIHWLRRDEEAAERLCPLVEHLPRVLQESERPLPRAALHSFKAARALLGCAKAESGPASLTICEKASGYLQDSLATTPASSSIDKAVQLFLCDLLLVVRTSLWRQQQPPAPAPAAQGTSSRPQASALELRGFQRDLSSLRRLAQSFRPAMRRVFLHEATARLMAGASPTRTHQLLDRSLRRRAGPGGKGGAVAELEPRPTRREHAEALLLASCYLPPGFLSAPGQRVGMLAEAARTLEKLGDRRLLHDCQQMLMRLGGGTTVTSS
Briefly: Inhibition of SREBP-1c transcriptional activity in human HepG2 cells expressing LXRalpha/RXRalpha assessed as reduction in SRE-luciferase level pretreated with compound for 30 mins followed by T0901317 addition and measured after 12 hrs by Dual-Glo luciferase assay. The data set is classed as cell-based. Particulars: dose 2.5-5 µM, time 12.5 hrs.

The subject of data set [7] is HepG2. Briefly: Downregulation of FASN mRNA level in human HepG2 cells at 10 uM pretreated with compound for 30 mins followed by […] addition and measured after 12 hrs by RT-qPCR analysis. It is filed as functional, cell-based. The following applies: time 12.5 hrs. On the technique in general: Real-time PCR tracks product formation cycle by cycle.
In data set [8] the test system is HepG2. As to the kind of experiment: Downregulation of SCD mRNA level in human HepG2 cells at 10 uM pretreated with compound for 30 mins followed by GW2935 addition and measured after 12 hrs by RT-qPCR analysis. The data set is classed as functional, cell-based. Particulars: time 12.5 hrs.
The subject of data set [9] is Hepatocyte. As to the kind of experiment: Effect on Cpt1 gene expression in mouse hepatocyte. The data set is classed as functional, cell-based.
For data set [10], the system named is HepG2. As to the kind of experiment: Downregulation of ACACA expression in human HepG2 cells at 5 uM pretreated with compound for 30 mins followed by T0901317 addition and measured after 12 hrs in presence of compound C by immunoblot analysis. It is filed as functional, cell-based. Particulars: time 12.5 hrs. Background: In western blotting, separated proteins are transferred to a membrane and probed.

In data set [11] the test system is Mus musculus. Briefly: Anti-lipogenic activity against high fat died induced male C57BL/6J mouse obesity model assessed as downregulation of scd level at 15 mg/kg, po administered three times per week and measured after 5 weeks by RT-qPCT analysis. It is filed as functional, organism-based.
The subject of data set [12] is Mus musculus. Briefly: Anti-lipogenic activity against high fat died induced male C57BL/6J mouse obesity model assessed as downregulation of Ccl5 mRNA level at 15 mg/kg, po administered three times per week and measured after 5 weeks by RT-qPCT analysis. It is filed as functional, organism-based.
Data set [13] concerns Mus musculus. As to the kind of experiment: Anti-lipogenic activity against high fat died induced male C57BL/6J mouse obesity model assessed as downregulation of Cxcl1 mRNA level at 15 mg/kg, po administered three times per week and measured after 5 weeks by RT-qPCT analysis. It is filed as functional, organism-based.

One may read the inhibition as the share of the control response that was lost under treatment. In general, MRT inf refers to a mean duration of stay, worked out from the concentration-time curve. One may read the clearance as the rate of elimination divided by the concentration. Lower therefore signals a low capacity for elimination.

In the case of `COc1ccccc1Nc1c(N[C@H]2CC[C@H](Oc3ccc([N+](=O)[O-])cc3)CC2)c(=O)c1=O`, the remaining at 2 h in data set [1] is over 100%. Also, the inhibition at 0.25 h, 10 µM in data set [2] was found to be 91.6%. The compound also registered an MRT inf in data set [3] of 1.3 h. Besides, the clearance in [4] is 13.3 mL/min/kg. The outcome in data set [5], in data set [7], in data set [8], in data set [11], in data set [12] and in [13] was Active. Besides, the inhibition result in [6] was “Dose-dependent-effect”. Also, the result in [9] and in data set [10] was inactive.
